Earlier results on 3 compounds are cited in patent US8197801B2, “Use of compounds for the preservation of the human or animal body and compositions comprising same” (Arkema France, priority 2006, dated 2012).

SMILES strings stand for the structures.

For the data set the following is noted: general statement.

On to `COCOC` [methylal, CH3—(OCH2)—OCH3], for which the “Toxicity relative to methanol and formaldehyde” value is “much less toxic than methanol and formaldehyde”.
As for `CCOCOCC` [ethylal, C2H5—(OCH2)—OC2H5], the “Toxicity relative to methanol and formaldehyde” value was “much less toxic than methanol and formaldehyde”.
For the compound `CCCCOCOCCCC` [butylal, C4H9—(OCH2)—OC4H9], the “Toxicity relative to methanol and formaldehyde” value is “much less toxic than methanol and formaldehyde”.
